From patent publication US20060135798A1, “2-Methylene-19-nor-(20S)-1alpha-hydroxy-trishomopregnacalciferol” (Wisconsin Alumni Research Foundation, priority 2004, published 2006)

How the values were obtained:
[1] = system: HL-60 cells; experiment: HL-60 differentiation (nitro blue tetrazolium reduction); type: cell-based, human; conditions: compared with 1,25-(OH)2D3; FIG. 2
Description: The study drugs were dissolved in ethanol and the concentrations determined using UV spectrophotometry. Serial dilutions were prepared so that a range of drug concentrations could be tested without changing the final concentration of ethanol (≦0.2%) present in the cell cultures.
Human promyelocytic leukemia (HL60) cells were grown in RPMI-1640 medium containing 10% fetal bovine serum. The cells were incubated at 37° C. in the presence of 5% CO2.
HL60 cells were plated at 1.2×10^5 cells/ml. Eighteen hours after plating, cells in duplicate were treated with drug. Four days later, the cells were harvested and a nitro blue tetrazolium reduction assay was performed (Collins et al., 1979; J. Exp. Med. 149:969-974). The percentage of differentiated cells was determined by counting a total of 200 cells and recording the number that contained intracellular black-blue formazan deposits. Verification of differentiation to monocytic cells was determined by measuring phagocytic activity (data not shown).

[2] = system: parathyroid hormone (PTH); experiment: PTH suppression in adult rats; type: in vivo, rat; conditions: ip, 7 consecutive days
Description: (§1) Adult, female Sprague-Dawley rats were obtained from Harlan (Madison, Wis.).
(§2) Upon receipt, the animals were identified by individual tail marks. Animals were housed in suspended, stainless steel, wire-bottom cages. Each cage contained one animal. The animal rooms were maintained at a temperature of 68 to 72° F. and a relative humidity of 25 to 75%. The holding rooms were set to provide 12 hours of light per day. Water and a purified rodent diet (Suda et al., Purified Rodent Diet-Diet 11) containing […] 0.3% phosphorus and fat soluble vitamins A, D, E and K were provided ad libitum.
(§3) Animals were randomly assigned to treatment groups (5 animals/group). All doses were administered intraperitoneally in 100 microliters of propylene glycol. Four to seven consecutive doses were given approximately 24 hours apart. Dosing was initiated after the animals had been allowed to acclimate for at least one week.
Both control and test articles were administered by intraperitoneal injection in 100 microliters for 4-7 consecutive days spaced approximately 24 hours apart. 1,25(OH)2D3 was given for 4 consecutive days, whereas, the test drugs were given for 7 consecutive days.
Twenty-four hours after the final dose, blood was collected from the tail artery and the concentration of bioactive serum PTH was measured using the rat BioActive Intact PTH ELISA Kit from Immutopics, Inc. (San Clemente, Calif.).

[3] = Intestinal calcium transport (everted gut sac method); type: in vivo, rat; conditions: rats, ip; FIG. 5
Description: (§4) Male, weanling Sprague-Dawley rats were placed on Diet 11 (0.47% Ca) diet +AEK for one week followed by Diet 11 (0.02% Ca) +AEK for 3 weeks. The rats were then switched to a diet containing 0.47% Ca for one week followed by two weeks on a diet containing 0.02% Ca. Dose administration began during the last week on 0.02% calcium diet. Four consecutive ip doses were given approximately 24 hours apart. Twenty-four hours after the last dose, blood was collected from the severed neck and the concentration of serum calcium determined as a measure of bone calcium mobilization. The first 10 cm of the intestine was also collected for intestinal calcium transport analysis using the everted gut sac method.

[4] = molecular target: T1, full-length recombinant rat vitamin D receptor (Rattus norvegicus, UniProt P13053); experiment: Vitamin D receptor binding, competition with [3H]-1,25-(OH)2-D3; conditions: compared with 1,25(OH)2D3; FIG. 1
T1 construct: Full-length recombinant rat receptor was expressed in E. coli BL21(DE3) Codon Plus RIL cells; histidine tag (C); made in house; host or cells: E. coli BL21(DE3) Codon Plus RIL
T1 sequence (P13053 1-423): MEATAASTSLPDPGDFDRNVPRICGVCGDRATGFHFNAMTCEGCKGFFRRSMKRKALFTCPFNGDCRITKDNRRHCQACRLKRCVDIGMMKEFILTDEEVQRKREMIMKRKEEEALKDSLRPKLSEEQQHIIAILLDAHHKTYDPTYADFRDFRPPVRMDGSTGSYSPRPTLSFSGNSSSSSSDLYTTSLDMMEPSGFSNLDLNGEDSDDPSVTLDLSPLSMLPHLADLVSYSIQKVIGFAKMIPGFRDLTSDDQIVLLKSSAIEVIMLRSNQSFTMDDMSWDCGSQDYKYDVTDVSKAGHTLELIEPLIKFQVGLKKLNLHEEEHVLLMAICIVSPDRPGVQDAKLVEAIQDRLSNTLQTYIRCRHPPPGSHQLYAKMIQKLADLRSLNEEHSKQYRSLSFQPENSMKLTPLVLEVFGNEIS
Description: Full-length recombinant rat receptor was expressed in E. coli BL21(DE3) Codon Plus RIL cells and purified to homogeneity using two different column chromatography systems. The first system was a nickel affinity resin that utilizes the C-terminal histidine tag on this protein. The protein that was eluted from this resin was further purified using ion exchange chromatography (S-Sepharose Fast Flow). Aliquots of the purified protein were quick frozen in liquid nitrogen and stored at −80° C. until use. For use in binding assays, the protein was diluted in TEDK50 (50 mM Tris, 1.5 mM EDTA, pH 7.4, 5 mM DTT, 150 mM KCl) with 0.1% Chaps detergent. The receptor protein and ligand concentration was optimized such that no more than 20% of the added radiolabeled ligand was bound to the receptor.
Unlabeled ligands were dissolved in ethanol and the concentrations determined using UV spectrophotometry (1,25(OH)2D3: molar extinction coefficient=18,200 and λmax=265 nm; Analogs: molar extinction coefficient=42,000 and λmax=252 nm). Radiolabeled ligand (^3H-1,25(OH)2D3, ˜159 Ci/mmole) was added in ethanol at a final concentration of 1 nM.
Radiolabeled and unlabeled ligands were added to 100 mcl of the diluted protein at a final ethanol concentration of ≦10%, mixed and incubated overnight on ice to reach binding equilibrium. […] Total binding was determined from the tubes containing only radiolabeled ligand.

[5] = Hypercalcemia: serum calcium in adult rats; type: in vivo, rat; conditions: ip, 7 consecutive days
Description: as §1, §2, §3
Both control and test articles were administered by intraperitoneal injection in 100 microliters for 4-7 consecutive days spaced approximately 24 hours apart. […]
Twenty-four hours after the final dose, approximately 1 ml of blood was collected from the tail artery of each experimental animal. […] The level of calcium was determined by diluting the serum into 0.1% lanthum chloride and measuring the absorbance on an atomic absorption spectrophotometer (Perkin Elmer Model 3110, Shelton, Conn.).

[6] = Bone calcium mobilization (serum calcium on low calcium diet); type: in vivo, rat; conditions: rats, ip, even at 2340 pmol/day; FIG. 4
Description: as §4

[7] = system: 24-hydroxylase (24Ohase) gene promoter; experiment: In vitro transcription assay (24-hydroxylase promoter luciferase reporter in ROS 17/2.8 cells); type: cell-based; conditions: compared with 1,25-(OH)2D3; FIG. 3
Description: Transcription activity was measured in ROS 17/2.8 (bone) cells that were stably transfected with a 24-hydroxylase (24Ohase) gene promoter upstream of a luciferase reporter gene (Arbour et al., 1998). Cells were given a range of doses. Sixteen hours after dosing the cells were harvested and luciferase activities were measured using a luminometer. RLU=relative luciferase units.

C=C1[C@H](O)CC(=C/C=C2\CCC[C@]3(C)C([C@@H](C)CCC)CC[C@@H]23)C[C@H]1O (stereo in doubt) [2-Methylene-19-nor-(20S)-1α-hydroxy-trishomopregnacalciferol]
activity in inducing differentiation of HL-60 cells [1]: equal in activity to 1,25-(OH)2D3
suppression of parathyroid hormone [2]: remarkably effective in suppressing parathyroid hormone
intestinal calcium transport [3]: retain some ability to elevate intestinal calcium transport
binding to the vitamin D receptor relative to the native hormone [4]: almost equal to the native hormone
serum calcium concentrations [5]: not raising serum calcium concentrations
bone calcium mobilizing activity [6]: little bone calcium mobilizing activity
transcription activity [7]: within one order of magnitude of the activity of 1,25-(OH)2D3
